# Measurements published in ChEMBL document CHEMBL1144513, “Synthesis and SAR study of novel 7-(pyridinium-3-yl)-carbonyl imidazo[5,1-b]thiazol-2-yl carbapenems” (2007).
# Columns and labels:
# Format in all cases: functional
# Staphylococcus aureus [1] = assay: Antibacterial activity against methicillin-resistant Staphylococcus aureus M126 by agar dilution method
# Haemophilus influenzae = assay: Antibacterial activity against beta-lactamase-negative ampicillin-resistant Haemophilus influenzae 870 by agar dilution method
# Moraxella catarrhalis = assay: Antibacterial activity against Moraxella catarrhalis W-0500 by agar dilution method
# Streptococcus pneumoniae = assay: Antibacterial activity against penicillin-resistant Streptococcus pneumoniae KK133 by agar dilution method
# Staphylococcus aureus [2] = assay: Antibacterial activity against Staphylococcus aureus 209P JC1 by agar dilution method
# Klebsiella pneumoniae = assay: Antibacterial activity against Klebsiella pneumoniae GN69 by agar dilution method
# Staphylococcus aureus [3] = assay: Antibacterial activity against carbapenem and methicillin-resistant Staphylococcus aureus M126HR by agar dilution method
# Escherichia coli = assay: Antibacterial activity against Escherichia coli NIHJ JC2 by agar dilution method
Structure (SMILES),MIC (Staphylococcus aureus [1]) [µg/mL],MIC (Haemophilus influenzae) [µg/mL],MIC (Moraxella catarrhalis) [µg/mL],MIC (Streptococcus pneumoniae) [µg/mL],MIC (Staphylococcus aureus [2]) [µg/mL],MIC (Klebsiella pneumoniae) [µg/mL],MIC (Staphylococcus aureus [3]) [µg/mL],MIC (Escherichia coli) [µg/mL]
C[C@@H](O)[C@H]1C(=O)N2C(C(=O)[O-])=C(c3cn4cnc(C(=O)c5ccc[n+](CCS(C)(=O)=O)c5)c4s3)[C@H](C)[C@H]12,1,0.063,0.016,0.031,≤ 0.008,0.5,4,0.5
C[C@@H](O)[C@H]1C(=O)N2C(C(=O)[O-])=C(c3cn4c(Cl)nc(C(=O)c5ccc[n+](CC(N)=O)c5)c4s3)[C@H](C)[C@H]12,0.5,0.063,0.016,0.031,0.008,2,2,1
C[C@@H](O)[C@H]1C(=O)N2C(C(=O)O)=C(c3cn4cnc(C(=O)c5cn(C)c6ccccc56)c4s3)[C@H](C)[C@H]12,0.031,0.125,0.016,0.125,0.008,8,8,4
C[C@@H](O)[C@H]1C(=O)N2C(C(=O)[O-])=C(c3cn4cnc(C(=O)c5ccc[n+](C)c5)c4s3)[C@H](C)[C@H]12,1,0.063,0.031,0.031,≤ 0.008,0.063,4,0.063
C[C@@H](O)[C@H]1C(=O)N2C(C(=O)O)=C(c3cn4cnc(C(=O)c5cccnc5)c4s3)[C@H](C)[C@H]12,1,0.031,0.016,0.031,≤ 0.008,2,4,1
CC(=O)C[n+]1cccc(C(=O)c2ncn3cc(C4=C(C(=O)[O-])N5C(=O)[C@H]([C@@H](C)O)[C@H]5[C@H]4C)sc23)c1,1,0.063,0.031,0.063,0.016,0.25,4,0.125
CCOC(=O)C[n+]1cccc(C(=O)c2ncn3cc(C4=C(C(=O)[O-])N5C(=O)[C@H]([C@@H](C)O)[C@H]5[C@H]4C)sc23)c1,2,0.063,0.031,0.063,0.016,0.063,8,0.031
C[C@@H](O)[C@H]1C(=O)N2C(C(=O)[O-])=C(c3cn4cnc(C(=O)c5ccc[n+](CC(=O)O)c5)c4s3)[C@H](C)[C@H]12,2,0.063,0.031,0.063,0.031,0.063,8,0.031
COCc1nc(C(=O)c2ccc[n+](CC(N)=O)c2)c2sc(C3=C(C(=O)[O-])N4C(=O)[C@H]([C@@H](C)O)[C@H]4[C@H]3C)cn12,2,0.063,0.031,0.063,0.031,4,4,8
C[C@@H](O)[C@H]1C(=O)N2C(C(=O)O)=C(c3cn4cnc(C(=O)[C@@H]5C[C@@H](O)CN5)c4s3)[C@H](C)[C@H]12,1,0.125,0.031,0.063,0.016,0.125,4,0.063
C[C@@H](O)[C@H]1C(=O)N2C(C(=O)[O-])=C(c3cn4c(N5CCOCC5)nc(C(=O)c5ccc[n+](CC(N)=O)c5)c4s3)[C@H](C)[C@H]12,2,0.125,0.063,0.063,0.031,16,8,16
C[C@@H](O)[C@H]1C(=O)N2C(C(=O)O)=C(c3cn4cnc(C(=O)c5cccs5)c4s3)[C@H](C)[C@H]12,0.031,0.125,0.016,0.125,≤ 0.008,4,4,2
C[C@@H](O)[C@H]1C(=O)N2C(C(=O)[O-])=C(c3cn4cnc(C(=O)c5ccc[n+](CCN(C)C)c5)c4s3)[C@H](C)[C@H]12,1,0.063,0.031,0.031,≤ 0.008,0.25,4,0.125
CSc1c2sc(C3=C(C(=O)[O-])N4C(=O)[C@H]([C@@H](C)O)[C@H]4[C@H]3C)cn2c[n+]1CC(N)=O,1,0.5,0.031,0.031,0.008,0.031,4,0.016
